Experimental data taken from PMC4655258 (Enzyme Research, 2015).
Read-outs that look alike come from different tables or passages of the source.

Key:
CYP1A1 = target: T1, CYP1A1 (Homo sapiens, UniProt P04798); assay: Fluorometric HTS enzyme assay, recombinant CYP1A1 (CEC substrate); format: biochemical; conditions: ±SEM, 3 replicate assays; 5 μM CEC
T1 construct: purchased BD Bioscience (Woburn, MA); host or cells: baculovirus-infected insect cells (microsomes, supersomes)
T1 sequence (P04798 1-512): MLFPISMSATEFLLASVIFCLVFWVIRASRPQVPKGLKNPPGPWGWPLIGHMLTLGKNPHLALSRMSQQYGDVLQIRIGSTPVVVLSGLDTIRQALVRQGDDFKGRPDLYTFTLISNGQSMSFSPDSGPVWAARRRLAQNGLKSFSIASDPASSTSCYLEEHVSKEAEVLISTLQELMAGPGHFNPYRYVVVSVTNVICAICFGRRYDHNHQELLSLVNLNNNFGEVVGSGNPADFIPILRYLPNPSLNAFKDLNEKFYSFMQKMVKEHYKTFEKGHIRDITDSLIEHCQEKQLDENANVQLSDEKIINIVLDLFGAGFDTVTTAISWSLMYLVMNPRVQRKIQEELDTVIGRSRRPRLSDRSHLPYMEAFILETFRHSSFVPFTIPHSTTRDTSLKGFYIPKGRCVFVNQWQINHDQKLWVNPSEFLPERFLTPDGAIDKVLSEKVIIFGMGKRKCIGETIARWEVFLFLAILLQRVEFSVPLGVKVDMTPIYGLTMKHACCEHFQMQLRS
Experimental: (§1) IC50 determinations for human CYPs were similar to HTS methods described by Crespi et al.. Unless otherwise stated, the incubations were carried out in a total volume of 200 μL of 50 mM potassium phosphate buffer (pH 7.4) with 1% acetonitrile. The reaction mixtures contained NADPH-regenerating system in potassium phosphate buffer (pH 7.4) and varying amounts of inhibitor (dissolved in 100% acetonitrile) were preincubated at 37°C for 10 minutes (except CYP2A6 which was in 100 mM Tris buffer pH 7.4). The reactions were initiated by the addition of enzyme/substrate mixture (see Table 1), followed by incubation at 37°C for 30 minutes. The fluorescent signal was measured using a SpectraMax GEMINI XPS (Molecular Devices) with excitation and emission wavelengths listed in Table 1. The data were fit to sigmoidal dose-response curves with nonlinear regression and IC50 values calculated using GraphPad Prism 5.

CYP2A6 = target: T2, CYP2A6 (Homo sapiens, UniProt P11509); assay: Fluorometric HTS enzyme assay, recombinant CYP2A6 (coumarin substrate); format: biochemical; conditions: ±SEM, 3 replicate assays; 3 μM coumarin
T2 construct: purchased BD Bioscience (Woburn, MA); host or cells: baculovirus-infected insect cells (microsomes, supersomes)
T2 sequence (P11509 1-494): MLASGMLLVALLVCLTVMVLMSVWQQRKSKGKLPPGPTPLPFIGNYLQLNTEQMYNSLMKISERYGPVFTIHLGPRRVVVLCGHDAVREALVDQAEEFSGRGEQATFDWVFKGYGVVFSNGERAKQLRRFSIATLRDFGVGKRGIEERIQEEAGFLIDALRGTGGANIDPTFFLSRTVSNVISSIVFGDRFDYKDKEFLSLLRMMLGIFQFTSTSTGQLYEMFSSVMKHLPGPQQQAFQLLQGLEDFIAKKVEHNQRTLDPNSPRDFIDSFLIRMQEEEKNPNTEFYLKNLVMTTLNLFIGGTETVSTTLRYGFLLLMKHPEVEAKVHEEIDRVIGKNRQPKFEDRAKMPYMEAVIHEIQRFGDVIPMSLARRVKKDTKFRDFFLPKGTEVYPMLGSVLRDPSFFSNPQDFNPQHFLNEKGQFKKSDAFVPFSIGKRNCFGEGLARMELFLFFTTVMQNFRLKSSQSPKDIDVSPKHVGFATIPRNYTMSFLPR
Experimental: as §1

CYP3A4 = target: T3, CYP3A4 (Homo sapiens, UniProt P08684); assay: Fluorometric HTS enzyme assay, recombinant CYP3A4 (BFC substrate); format: biochemical; conditions: recombinant CYP3A4, pH 7.4, probe BFC, at 1 mM
T3 construct: purchased BD Bioscience (Woburn, MA); host or cells: baculovirus-infected insect cells (microsomes, supersomes)
Experimental: as §1

CYP1B1 = test system: CYP1B1; set-up: method as in PMID 18256205; conditions: cited from earlier work
[1] = cited from earlier work

T3 sequence (P08684 whole entry): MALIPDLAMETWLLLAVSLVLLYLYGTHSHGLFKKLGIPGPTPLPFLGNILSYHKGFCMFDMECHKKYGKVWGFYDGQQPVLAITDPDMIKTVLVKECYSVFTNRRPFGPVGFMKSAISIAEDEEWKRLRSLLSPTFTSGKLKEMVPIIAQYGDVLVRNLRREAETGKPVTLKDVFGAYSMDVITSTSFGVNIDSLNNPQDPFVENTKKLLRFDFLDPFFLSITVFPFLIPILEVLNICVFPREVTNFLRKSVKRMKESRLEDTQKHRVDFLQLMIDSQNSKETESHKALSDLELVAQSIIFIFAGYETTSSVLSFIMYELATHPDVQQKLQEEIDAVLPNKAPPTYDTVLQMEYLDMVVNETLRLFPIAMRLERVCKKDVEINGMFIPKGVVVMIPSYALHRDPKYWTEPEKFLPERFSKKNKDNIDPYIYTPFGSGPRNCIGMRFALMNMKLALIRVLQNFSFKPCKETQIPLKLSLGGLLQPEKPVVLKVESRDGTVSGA

`N#Cc1ccc(C(c2ccc(C#N)cc2)n2cncn2)cc1` [Letrozole] showed an IC50 (CYP1A1) of 69.8 ± 5.3 µM, an IC50 (CYP2A6) of 106 ± 34 µM and an inhibition at 30 min, 1 mM (CYP3A4) of under 10%. For the same compound, the IC50 (CYP1B1; 2-hydroxy estradiol formation, read-out: IC50 on CYP1B1, estradiol 2-hydroxylation) was at least 100 µM, the IC50 (CYP1B1; 4-hydroxy estradiol formation, read-out: IC50 on CYP1B1, estradiol 4-hydroxylation) was at least 100 µM and the “effect of pretreatment on [11C]-vorozole binding in the liver” value ([1]; baboon and human liver, pretreatment with letrozole) was “does not block”.

In the case of `CC(=O)N1CCN(c2ccc(OCC3COC(Cn4ccnc4)(c4ccc(Cl)cc4Cl)O3)cc2)CC1` (stereo not shown) [ketoconazole], the “effect of pretreatment on liver pharmacokinetics of [11C]-vorozole binding” value ([1]; pretreatment with ketoconazole) is listed as “altered”.
